Reference: patent publication US20100215579A1, “PHEN-NAPHTHALENE AND PHEN-QUINOLINE DERIVATIVES AND THEIR USE FOR BINDING AND IMAGING AMYLOID PLAQUES” (The Trustees of the University of Pennsylvania, priority 2007, published 2010)
pKi: −log10 of the molar value.

Key:
[1] = Log P (octanol/Na2HPO4 buffer pH 7.4); assay type: physicochemical; conditions: octanol/0.05 M Na2HPO4 buffer (pH 7.4)
[2] = Biodistribution in ICR mice after an iv injection; assay type: in vivo
Excerpt: Biodistribution in ICR Mice After an iv Injection of [^18F][4-(6-{2-[2-(2-Fluoro-ethoxy)-ethoxy]-ethoxy}-naphthalen-2-yl)-phenyl]-methyl-amine in 1% EtOH/0.1% BSA in Water
(% dose/organ, avg of 3 mice±SD)
(% dose/g, avg of 3 mice±SD)
Biodistribution in ICR Mice After an iv Injection of [^18F]19a in 3% EtOH/0.1% BSA in Water
Biodistribution in ICR Mice After an iv Injection of [^18F]34a in 5% EtOH/0.1% BSA in Water
Biodistribution in ICR Mice After an iv Injection of [^18F]32a in 1% EtOH/0.1% BSA in Water

amyloid plaques = target: T1, amyloid plaques (Homo sapiens, UniProt P05067); experiment: Ki values of Phen-Nap, Nap-Phen derivatives (Ki binding data)
T1 construct: fibrillary Aβ plaques consisting predominately of aggregates of Aβ40 and Aβ42 peptides
T1 sequence (P05067 672-713 limits assumed): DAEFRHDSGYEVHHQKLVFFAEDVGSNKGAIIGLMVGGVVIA
T1 sequence (P05067 672-711 limits assumed): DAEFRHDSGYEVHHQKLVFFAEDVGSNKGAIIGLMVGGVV

[3] = Blood, 2 min after iv injection
[4] = Blood, 30 min after iv injection
[5] = Bone, 30 min after iv injection
[6] = Brain, 2 min after iv injection
[7] = Brain, 30 min after iv injection
[8] = Heart, 2 min after iv injection
[9] = Heart, 30 min after iv injection
[10] = Kidney, 2 min after iv injection
[11] = Kidney, 30 min after iv injection
[12] = Kidney, 1 hr after iv injection
[13] = Kidney, 2 hr after iv injection
[14] = Liver, 2 min after iv injection
[15] = Liver, 30 min after iv injection
[16] = Lung, 30 min after iv injection
[17] = Muscle, 2 min after iv injection
[18] = Muscle, 30 min after iv injection
[19] = Muscle, 1 hr after iv injection
[20] = Muscle, 2 hr after iv injection
[21] = Skin, 30 min after iv injection
[22] = Spleen, 2 min after iv injection
[23] = Spleen, 30 min after iv injection
[24] = Spleen, 1 hr after iv injection
[25] = Spleen, 2 hr after iv injection

CNc1ccc(-c2ccc3nc(OCCOCCOCC[18F])ccc3c2)cc1 [[^18F]34a]
Log P [1]: 3.23 | % dose/g [2, 3]: 2.50 ± 0.14 % dose/g | % dose/organ [2, 3]: 4.29 ± 0.20 % dose/organ | % dose/g [2, 4]: 1.49 ± 0.15 % dose/g | % dose/organ [2, 4]: 2.51 ± 0.18 % dose/organ | % dose/g ([2]; Blood, 1 hr after iv injection): 1.61 ± 0.12 % dose/g | % dose/organ ([2]; Blood, 1 hr after iv injection): 2.87 ± 0.20 % dose/organ | % dose/g ([2]; Blood, 2 hr after iv injection): 1.52 ± 0.23 % dose/g | % dose/organ ([2]; Blood, 2 hr after iv injection): 2.58 ± 0.26 % dose/organ | % dose/g ([2]; Bone, 2 min after iv injection): 1.11 ± 0.11 % dose/g | % dose/organ ([2]; Bone, 2 min after iv injection): 3.82 ± 0.33 % dose/organ | % dose/g [2, 5]: 1.16 ± 0.20 % dose/g | % dose/organ [2, 5]: 3.87 ± 0.43 % dose/organ | % dose/g ([2]; Bone, 1 hr after iv injection): 1.49 ± 0.18 % dose/g | % dose/organ ([2]; Bone, 1 hr after iv injection): 5.31 ± 0.31 % dose/organ | % dose/g ([2]; Bone, 2 hr after iv injection): 2.33 ± 0.43 % dose/g | % dose/organ ([2]; Bone, 2 hr after iv injection): 7.84 ± 0.91 % dose/organ | % dose/g [2, 6]: 10.2 ± 1.09 % dose/g | % dose/organ [2, 6]: 4.61 ± 0.60 % dose/organ | % dose/g [2, 7]: 2.23 ± 0.29 % dose/g | % dose/organ [2, 7]: 1.02 ± 0.11 % dose/organ | % dose/g ([2]; Brain, 1 hr after iv injection): 1.88 ± 0.20 % dose/g | % dose/organ ([2]; Brain, 1 hr after iv injection): 0.90 ± 0.08 % dose/organ | % dose/g ([2]; Brain, 2 hr after iv injection): 1.90 ± 0.25 % dose/g | % dose/organ ([2]; Brain, 2 hr after iv injection): 0.85 ± 0.12 % dose/organ | % dose/g [2, 8]: 10.7 ± 2.06 % dose/g | % dose/organ [2, 8]: 1.26 ± 0.20 % dose/organ | % dose/g [2, 9]: 2.86 ± 0.30 % dose/g | % dose/organ [2, 9]: 0.36 ± 0.05 % dose/organ | % dose/g ([2]; Heart, 1 hr after iv injection): 2.20 ± 0.31 % dose/g | % dose/organ ([2]; Heart, 1 hr after iv injection): 0.29 ± 0.03 % dose/organ | % dose/g ([2]; Heart, 2 hr after iv injection): 1.71 ± 0.13 % dose/g | % dose/organ ([2]; Heart, 2 hr after iv injection): 0.19 ± 0.01 % dose/organ | % dose/g [2, 10]: 13.6 ± 0.10 % dose/g | % dose/organ [2, 10]: 5.22 ± 0.33 % dose/organ | % dose/g [2, 11]: 4.41 ± 0.49 % dose/g | % dose/organ [2, 11]: 1.69 ± 0.22 % dose/organ | % dose/g [2, 12]: 3.57 ± 0.64 % dose/g | % dose/organ [2, 12]: 1.36 ± 0.09 % dose/organ | % dose/g [2, 13]: 2.47 ± 0.45 % dose/g | % dose/organ [2, 13]: 1.00 ± 0.24 % dose/organ | % dose/g [2, 14]: 18.2 ± 0.95 % dose/g | % dose/organ [2, 14]: 21.2 ± 0.76 % dose/organ | % dose/g [2, 15]: 11.9 ± 1.63 % dose/g | % dose/organ [2, 15]: 14.2 ± 0.91 % dose/organ | % dose/g ([2]; Liver, 1 hr after iv injection): 8.99 ± 1.19 % dose/g | % dose/organ ([2]; Liver, 1 hr after iv injection): 11.8 ± 0.65 % dose/organ | % dose/g ([2]; Liver, 2 hr after iv injection): 6.72 ± 0.58 % dose/g | % dose/organ ([2]; Liver, 2 hr after iv injection): 8.29 ± 1.09 % dose/organ | % dose/g ([2]; Lung, 2 min after iv injection): 6.83 ± 0.07 % dose/g | % dose/organ ([2]; Lung, 2 min after iv injection): 1.34 ± 0.03 % dose/organ | % dose/g [2, 16]: 2.87 ± 0.32 % dose/g | % dose/organ [2, 16]: 0.54 ± 0.06 % dose/organ | % dose/g ([2]; Lung, 1 hr after iv injection): 2.42 ± 0.34 % dose/g | % dose/organ ([2]; Lung, 1 hr after iv injection): 0.48 ± 0.06 % dose/organ | % dose/g ([2]; Lung, 2 hr after iv injection): 1.96 ± 0.29 % dose/g | % dose/organ ([2]; Lung, 2 hr after iv injection): 0.36 ± 0.05 % dose/organ | % dose/g [2, 17]: 0.65 ± 0.01 % dose/g | % dose/organ [2, 17]: 6.40 ± 0.14 % dose/organ | % dose/g [2, 18]: 1.50 ± 0.21 % dose/g | % dose/organ [2, 18]: 14.5 ± 2.59 % dose/organ | % dose/g [2, 19]: 1.33 ± 0.17 % dose/g | % dose/organ [2, 19]: 13.5 ± 0.83 % dose/organ | % dose/g [2, 20]: 0.98 ± 0.08 % dose/g | % dose/organ [2, 20]: 9.55 ± 0.31 % dose/organ | % dose/g ([2]; Skin, 2 min after iv injection): 0.58 ± 0.07 % dose/g | % dose/organ ([2]; Skin, 2 min after iv injection): 2.13 ± 0.27 % dose/organ | % dose/g [2, 21]: 1.03 ± 0.12 % dose/g | % dose/organ [2, 21]: 3.70 ± 0.28 % dose/organ | % dose/g ([2]; Skin, 1 hr after iv injection): 1.47 ± 0.12 % dose/g | % dose/organ ([2]; Skin, 1 hr after iv injection): 5.67 ± 0.85 % dose/organ | % dose/g ([2]; Skin, 2 hr after iv injection): 1.12 ± 0.05 % dose/g | % dose/organ ([2]; Skin, 2 hr after iv injection): 4.12 ± 0.12 % dose/organ | % dose/g [2, 22]: 4.11 ± 1.02 % dose/g | % dose/organ [2, 22]: 0.47 ± 0.08 % dose/organ | % dose/g [2, 23]: 2.16 ± 0.05 % dose/g | % dose/organ [2, 23]: 0.21 ± 0.00 % dose/organ | % dose/g [2, 24]: 1.89 ± 0.27 % dose/g | % dose/organ [2, 24]: 0.17 ± 0.01 % dose/organ | % dose/g [2, 25]: 1.48 ± 0.20 % dose/g | % dose/organ [2, 25]: 0.14 ± 0.02 % dose/organ

CN(C)c1ccc2cc(-c3ccc(OCCOCCOCCO)cc3)ccc2c1 [Compound 18b, 2-(2-(2-(4-(6-(dimethylamino)naphthalen-2-yl)phenoxy)ethoxy)ethoxy)ethanol]
pKi (amyloid plaques): 8.19

CN(C)c1ccc2cc(-c3ccc(O)cc3)ccc2c1 [Compound 24, 4-(6-(dimethylamino)naphthalen-2-yl)phenol]
pKi (amyloid plaques): 8.38

Oc1ccc2cc(-c3ccc(OCCOCCOCCF)cc3)ccc2c1 [Compound 28, 6-(4-(2-(2-(2-fluoroethoxy)ethoxy)ethoxy)phenyl)naphthalen-2-ol]
pKi (amyloid plaques): 7.80

Nc1ccc(-c2ccc3nc(OCCOCCOCCO)ccc3c2)cc1 [Compound 33b, 2-(2-(2-(6-(4-aminophenyl)quinolin-2-yloxy)ethoxy)ethoxy)ethanol]
pKi (amyloid plaques): 6.96
